According to paper PMC9352624, “Going deeper into the toxicokinetics of synthetic cannabinoids: in vitro contribution of human carboxylesterases” (Archives of Toxicology, 2022):
Several values for one entry are separate records, joined by “and”; a condition that tells them apart may be missing. Identical values can stand only once.

Experiments:
[1] = target: T1, hCES2 (Homo sapiens, UniProt O00748); experiment: Initial activity screening with recombinant hCES2; conditions: 100 µM substrate, 30 min, 37 °C, 0.2 µg/µL protein, LC–ITMS; for Relative amount of hydrolysis metabolite formed, hCES2: mean n = 2
T1 sequence (O00748 27-559): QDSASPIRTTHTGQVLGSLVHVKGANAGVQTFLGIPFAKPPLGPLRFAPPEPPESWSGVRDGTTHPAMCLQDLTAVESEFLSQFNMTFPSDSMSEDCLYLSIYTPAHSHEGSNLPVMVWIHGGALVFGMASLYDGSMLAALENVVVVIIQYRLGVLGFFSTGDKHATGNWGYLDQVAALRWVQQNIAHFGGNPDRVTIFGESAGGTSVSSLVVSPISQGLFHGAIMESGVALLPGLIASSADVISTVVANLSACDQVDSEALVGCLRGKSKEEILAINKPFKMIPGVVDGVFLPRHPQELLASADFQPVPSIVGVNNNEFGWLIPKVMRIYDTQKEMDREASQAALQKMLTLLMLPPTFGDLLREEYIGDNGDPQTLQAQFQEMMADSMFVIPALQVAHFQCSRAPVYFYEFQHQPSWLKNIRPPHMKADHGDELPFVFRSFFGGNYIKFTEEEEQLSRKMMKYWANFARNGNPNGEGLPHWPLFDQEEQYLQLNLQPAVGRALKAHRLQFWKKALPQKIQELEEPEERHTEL

[2] = target: T2, hCES1b (Homo sapiens, UniProt P23141); experiment: Initial activity screening with recombinant hCES1b; conditions: 100 µM substrate, 30 min, 37 °C, 0.2 µg/µL protein, LC–ITMS; for Relative amount of hydrolysis metabolite formed, hCES1b: mean n = 2
T2 sequence (P23141 18-567): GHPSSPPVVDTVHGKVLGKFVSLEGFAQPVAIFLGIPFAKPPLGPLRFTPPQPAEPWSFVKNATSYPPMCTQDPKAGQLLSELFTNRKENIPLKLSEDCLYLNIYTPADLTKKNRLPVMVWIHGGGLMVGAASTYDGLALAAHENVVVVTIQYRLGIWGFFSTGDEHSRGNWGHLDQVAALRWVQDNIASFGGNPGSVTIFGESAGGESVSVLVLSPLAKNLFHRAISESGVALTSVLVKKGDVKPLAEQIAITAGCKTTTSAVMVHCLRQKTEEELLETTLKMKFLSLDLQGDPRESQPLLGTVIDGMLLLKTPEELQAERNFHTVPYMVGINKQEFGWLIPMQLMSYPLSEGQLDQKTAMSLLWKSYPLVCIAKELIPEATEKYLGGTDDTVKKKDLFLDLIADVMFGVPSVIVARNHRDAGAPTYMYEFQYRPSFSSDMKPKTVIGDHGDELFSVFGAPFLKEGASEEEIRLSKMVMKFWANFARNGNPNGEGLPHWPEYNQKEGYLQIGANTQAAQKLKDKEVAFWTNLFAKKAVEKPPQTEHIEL

[3] = target: T3, hCES1c (Homo sapiens, UniProt P23141); experiment: Initial activity screening with recombinant hCES1c; conditions: 100 µM substrate, 30 min, 37 °C, 0.2 µg/µL protein, LC–ITMS; for Relative amount of hydrolysis metabolite formed, hCES1c: mean n = 2
T3 sequence (P23141 18-566 isoform P23141-3 limits assumed): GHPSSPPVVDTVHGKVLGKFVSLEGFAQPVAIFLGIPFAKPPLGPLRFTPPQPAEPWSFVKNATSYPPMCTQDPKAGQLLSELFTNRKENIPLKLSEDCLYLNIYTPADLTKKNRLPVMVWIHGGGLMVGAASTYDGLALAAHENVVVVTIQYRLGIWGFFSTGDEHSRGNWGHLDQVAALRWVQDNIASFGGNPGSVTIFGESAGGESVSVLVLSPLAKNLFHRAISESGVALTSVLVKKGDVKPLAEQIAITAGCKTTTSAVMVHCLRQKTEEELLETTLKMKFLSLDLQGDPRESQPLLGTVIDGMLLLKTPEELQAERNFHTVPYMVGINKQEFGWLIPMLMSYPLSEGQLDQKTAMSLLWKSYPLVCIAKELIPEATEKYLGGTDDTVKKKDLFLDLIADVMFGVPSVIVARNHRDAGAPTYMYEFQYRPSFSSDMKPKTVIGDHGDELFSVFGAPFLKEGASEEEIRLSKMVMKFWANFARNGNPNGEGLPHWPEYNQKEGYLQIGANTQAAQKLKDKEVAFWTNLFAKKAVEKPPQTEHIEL

[4] = Initial activity screening with pooled human liver microsomes; conditions: 100 µM substrate, 30 min, 37 °C, 2 µg/µL protein, LC–ITMS, mean n = 2
[5] = Initial activity screening with pooled human liver S9 fraction; conditions: 100 µM substrate, 30 min, 37 °C, 2 µg/µL protein, LC–ITMS, mean n = 2
[6] = target: T3, hCES1c; experiment: Enzyme kinetic studies of ester hydrolysis with hCES1c; conditions: for Clint (relative in vitro intrinsic clearance), hCES1c: Clint = Vmax/Km; for Vmax (relative), ester hydrolysis by hCES1c: ± S.D., peak area ratio metabolite/internal standard
[7] = target: T2, hCES1b; experiment: Enzyme kinetic studies of ester hydrolysis with hCES1b; conditions: for Clint (relative in vitro intrinsic clearance), hCES1b: Clint = Vmax/Km; for Vmax (relative), ester hydrolysis by hCES1b: peak area ratio metabolite/internal standard

Row | Compound | Hydrolysis of carboxamide linker, hCES2 [1] | Hydrolysis of carboxamide linker, hCES1b [2] | Hydrolysis of carboxamide/ester in head group, hCES1b [2] | Hydrolysis of carboxamide linker, hCES1c [3] | Hydrolysis of carboxamide/ester in head group, hCES1c [3] | Relative amount of hydrolysis metabolite formed, hCES1b [2] | Relative amount of hydrolysis metabolite formed, hCES1c [3] | Relative amount of hydrolysis metabolite formed, pHLM [4] | Relative amount of hydrolysis metabolite formed, pHLS9 [5] | Hydrolysis of carboxamide/ester in head group, hCES2 [1] | Relative amount of hydrolysis metabolite formed, hCES2 [1] [%] | Clint (relative in vitro intrinsic clearance), hCES1c [6] [AU/min/mg/µM] | Vmax (relative), ester hydrolysis by hCES1c [6] | Clint (relative in vitro intrinsic clearance), hCES1b [7] [AU/min/mg/µM] | Km ([7]; read-out: Km, ester hydrolysis by hCES1b, ± S.D., Michaelis–Menten fit, conditions of Table 1) [µM] | Vmax (relative), ester hydrolysis by hCES1b ([7]; ± S.D.)
1 | COC(=O)[C@@H](NC(=O)c1cn(CCCCCF)c2ccccc12)C(C)(C)C [MDMB-5F-PICA, methyl (2S)-2-{[1-(5-fluoropentyl)-1H-indole-3-carbonyl]amino}-3,3-dimethylbutanoate] | − | − | − | − | − |  |  |  |  |  |  |  |  |  |  | 
2 | COC(=O)[C@@H](NC(=O)c1nn(CCCCF)c2ccccc12)C(C)(C)C [MDMB-4F-BINACA, methyl (2S)-2-[1-(4-fluorobutyl)-1H-indazole-3-carbonyl]amino-3,3-dimethylbutanoate] | − | − | + | − | + | below 1% | below 1% | 4.3% | around 1% |  |  |  |  |  |  | 
3 | C=CCCCn1cc(C(=O)N[C@H](C(=O)OC)C(C)C)c2ccccc21 [MMB-4en-PICA, methyl (1-(pent-4-en-1-yl)-1H-indole-3-carbonyl)-L-valinate] | − | − | + | − | + | 1.5% | 5.7% |  | 11% | + | 0.2 | 0.04 | 7.57 AU/min/mg and 7.57 ± 0.42 AU/min/mg |  |  | 
4 | CC(C)[C@H](NC(=O)c1cc(-c2ccc(F)cc2)nn1CCCCCF)C(N)=O [3,5-AB-5F-FUPPYCA, N-[(1S)-1-(aminocarbonyl)-2-methylpropyl]-1-(5-fluoropentyl)-3-(4-fluorophenyl)-1H-pyrazole-5-carboxamide] | − | − | − | − | − |  |  |  |  | − |  |  |  |  |  | 
5 | O=C(NC12CC3CC(CC(C3)C1)C2)c1nn(CC2CCCCC2)c2ccccc12 [A-CHMINACA, 1-cyclohexylmethyl-N-tricyclo[3.3.1.13,7]dec-1-yl-1H-indazole-3-carboxamide] | − | − |  | − |  |  |  |  |  |  |  |  |  |  |  | 
6 | COC(=O)[C@@H](NC(=O)c1cn(Cc2ccc(F)cc2)c2ccccc12)C(C)(C)C [MDMB-FUBICA, methyl (2S)-2-({1-[(4-fluorophenyl)methyl]-1H-indole-3-carbonyl}amino)-3,3-dimethylbutanoate] | − | − | − | − | + |  | below 1% | around 1% | around 1% |  |  |  |  |  |  | 
7 | CC(C)[C@H](NC(=O)c1cn(CCCCCF)c2ncccc12)C(N)=O [AB-5F-P7AICA, (S)-N-(1-amino-3-methyl-1-oxobutan-2-yl)-1-(5-fluoropentyl)-1H-pyrrolo[2,3-b]pyridine-3-carboxamide] | − | − | − | − | − |  |  |  |  | − |  |  |  |  |  | 
8 | N-[(2S)-1-amino-3,3-dimethyl-1-oxobutan-2-yl]-1-(cyclohexylmethyl)-1H-indole-3-carboxamide [MMB-CHMICA] | − | − | + | − | + | 14% | 2.3% | 25% |  |  |  |  |  | 0.53 | 39.3 ± 12 | 20.8 AU/min/mg and 20.8 ± 2.2 AU/min/mg
9 | COC(=O)C(Cc1ccccc1)NC(=O)c1cn(CCCCCF)c2ccccc12 [MPhP-5F-PICA, methyl (1-(5-fluorpentyl)-1H-indole-3-carbonyl)-L-phenylalaninate] | − | − | + | − | + | 19% | 20% |  |  | + | 2.1 | 3.2 | 73.6 AU/min/mg and 73.6 ± 3.8 AU/min/mg | 2.0 |  | 182 AU/min/mg and 182 ± 13 AU/min/mg
10 | CC(C)(C)C(NC(=O)c1nn(CC2CCCCC2)c2ccccc12)C(=O)O (stereo not shown) [DMBA-CHMINACA, 2-[1-(cyclohexylmethyl)-1H-indazole-3-carboxamido]-3,3-dimethylbutanoic acid] | − | − |  | − |  |  |  |  |  |  |  |  |  |  |  | 
11 | C=CCCCn1nc(C(=O)N[C@H](C(=O)OC)C(C)(C)C)c2ccccc21 [MDMB-4en-PINACA, methyl (2S)-3,3-dimethyl-2-[(1-pent-4-enylindazole-3-carbonyl)amino]butanoate] | − | − | + | − | + | below 1% | below 1% | around 1% | around 1% |  |  |  |  |  |  | 
12 | CC(C)C(NC(=O)c1nn(CC2CCCCC2)c2ccccc12)C(=O)O (stereo not shown) [MBA-CHMINACA, 2-[1-(cyclohexylmethyl)-1H-indazole-3-carboxamido]-3-methylbutanoic acid] | − | − |  | − |  |  |  |  |  |  |  |  |  |  |  | 
